Our source for the Ki values is US12251387B2, “Substituted quinoxalines and benzo[c][1,2,5]oxadiazoles as DNA-PK inhibitors” (Vertex Pharmaceuticals Incorporated, priority 2013, dated 2025).

pKi: −log10 of the molar value.

The target of the first test is DNA-PK (Homo sapiens, UniProt P78527). The test is described as follows: DNA-PK Inhibition Assay (standard radiometric kinase assay, 33P-ATP, peptide substrate).
Conditions: not given
The test is classed as biochemical. As for the experimental part: Compounds were screened for their ability to inhibit DNA-PK kinase using a standard radiometric assay. Briefly, in this kinase assay the transfer of the terminal ^33P-phosphate in ^33P-ATP to a peptide substrate is interrogated. The assay was carried out in 384-well plates to a final volume of 50 μL per well containing approximately 6 nM DNA-PK, 50 mM HEPES (pH 7.5), 10 mM MgCl2, 25 mM NaCl, 0.01% BSA, 1 mM DTT, 10 μg/mL sheared double-stranded DNA (obtained from Sigma), 0.8 mg/mL DNA-PK peptide (Glu-Pro-Pro-Leu-Ser-Gln-Glu-Ala-Phe-Ala-Asp-Leu-Trp-Lys-Lys-Lys, obtained from American Peptide), and 100 μM ATP. Accordingly, compounds of the invention were dissolved in DMSO to make 10 mM initial stock solutions. Serial dilutions in DMSO were then made to obtain the final solutions for the assay. A 0.75 μL aliquot of DMSO or inhibitor in DMSO was added to each well, followed by the addition of ATP substrate solution containing ^33P-ATP (obtained from Perkin Elmer). The reaction was started by the addition of DNA-PK, peptide and ds-DNA. After 45 min, the reaction was quenched with 25 μL of 5% phosphoric acid. The reaction mixture was transferred to MultiScreen HTS 384-well PH plates (obtained from Millipore), allowed to bind for one hour, and washed three times with 1% phosphoric acid. Following the addition of 50 μL of Ultima Gold™ high efficiency scintillant (obtained from Perkin Elmer), the samples were counted in a Packard TopCount NXT Microplate Scintillation and Luminescence Counter (Packard BioScience). The Ki values were calculated using Microsoft Excel Solver macros to fit the data to the kinetic model for competitive tight-binding inhibition.
`ClCCN1CCC(c2cnc(N[C@H]3CC[C@@H](Oc4cc(N5CCOCC5)cc5nccnc45)CC3)nc2)CC1` [Compound 522]: the pKi was above 7.00.

The test is the same for the next values; noted with them: radiometric assay, approximately 6 nM DNA-PK, 100 μM ATP, 45 min; fit to competitive tight-binding inhibition; read-out: Ki for the inhibition of DNA-PK.
In the case of `c1cn2ccnc2c(N[C@H]2CC[C@@H](Oc3cc(N4CCOCC4)cc4nccnc34)CC2)n1` [Compound 372], the pKi is above 7.00.

As to `c1cc(N[C@H]2CC[C@@H](Oc3cc(N4CCOCC4)cc4nccnc34)CC2)nc(OCCN2CCCCC2)n1` [Compound 493], the negative logarithm of the Ki (pKi) was above 7.00.

Consider `CN1CCC(Nc2ncnc(N[C@H]3CC[C@@H](Oc4cc(N5CCOCC5)cc5nccnc45)CC3)c2F)C1` (some centres unmarked) [Compound 381], for which the pKi was above 7.00.

Take `OCc1ccnc(N[C@H]2CC[C@@H](Oc3cc(N4CCOCC4)cc4nccnc34)CC2)n1` [Compound 457]: the pKi is above 7.00.

As to `Cc1cncc(N[C@H]2CC[C@@H](Oc3cc(N4CCOCC4)cc4nccnc34)CC2)n1` [Compound 373], the pKi is above 7.00.

Regarding `c1cc(N[C@H]2CC[C@@H](Oc3cc(N4CCOCC4)cc4nccnc34)CC2)n2ncnc2c1` [Compound 581], the pKi is above 7.00.

Regarding `Cc1cc(N[C@H]2CC[C@@H](Oc3cc(N4CCOCC4)cc4nccnc34)CC2)n[nH]c1=O` [Compound 599], the pKi is above 7.00.

Regarding `Cc1ncnc(N[C@H]2CC[C@@H](Oc3cc(N4CCOCC4)cc4nccnc34)CC2)c1F` [Compound 477], the negative-log Ki (pKi) was above 7.00.

On to `COc1ncnc(N[C@H]2CC[C@@H](Oc3cc(N4CCOCC4)cc4nccnc34)CC2)c1F` [Compound 376], for which the negative logarithm of the Ki (pKi) was above 7.00.

With `Fc1cc(N[C@H]2CC[C@@H](Oc3cc(N4CCOCC4)cc4nccnc34)CC2)ccn1` [Compound 642], the pKi is above 7.00.

With `CN1CCc2nc(N[C@H]3CC[C@@H](Oc4cc(N5CCOCC5)cc5nccnc45)CC3)ncc2C1` [Compound 632], the negative logarithm of the Ki (pKi) was above 7.00.

In the case of `c1nc2c(c(N[C@H]3CC[C@@H](Oc4cc(N5CCOCC5)cc5nccnc45)CC3)n1)CCC2` [Compound 487], the pKi was above 7.00.

Take `c1cnc2c(O[C@H]3CC[C@@H](Nc4ncnc5ccoc45)CC3)cc(N3CCOCC3)cc2n1` [Compound 488]: the pKi was above 7.00.

`CN1CCc2ncnc(N[C@H]3CC[C@@H](Oc4cc(N5CCOCC5)cc5nccnc45)CC3)c2C1` [Compound 398]: the pKi was above 7.00.

Consider `c1cnc2c(O[C@H]3CC[C@@H](Nc4ncc5occc5n4)CC3)cc(N3CCOCC3)cc2n1` [Compound 563], for which the pKi is above 7.00.

Take `CC(=O)N1CCC(NC(=O)N[C@H]2CC[C@@H](Oc3cc(N4CCOCC4)cc4nccnc34)CC2)CC1` [Compound 364]: the pKi is above 7.00.

Take `Cn1nnnc1-c1cnc(N[C@H]2CC[C@@H](Oc3cc(N4CCOCC4)cc4nccnc34)CC2)nc1` [Compound 459]: the pKi was above 7.00.

On to `CNC(=O)c1cc(N[C@H]2CC[C@@H](Oc3cc(N4CCOCC4)cc4nccnc34)CC2)ncn1` [Compound 360], for which the pKi was above 7.00.

For `O=C1NCCc2nc(N[C@H]3CC[C@@H](Oc4cc(N5CCOCC5)cc5nccnc45)CC3)sc21` [Compound 322], the pKi is above 7.00.

Turning to `CN(C)C(=O)c1ccnc(N[C@H]2CC[C@@H](Oc3cc(N4CCOCC4)cc4nccnc34)CC2)n1` [Compound 351], the pKi is above 7.00.

With `CN(C)c1cc(N[C@H]2CC[C@@H](Oc3cc(N4CCOCC4)cc4nccnc34)CC2)ncn1` [Compound 603], the negative-log Ki (pKi) was above 7.00.

Take `CN1CCC(NC(=O)N[C@H]2CC[C@@H](Oc3cc(N4CCOCC4)cc4nccnc34)CC2)CC1` [Compound 363]: the pKi was above 7.00.

Turning to `OCc1cnc(N[C@H]2CC[C@@H](Oc3cc(N4CCOCC4)cc4nccnc34)CC2)cn1` [Compound 577], the pKi was above 7.00.

In the case of `Fc1ccc(N[C@H]2CC[C@@H](Oc3cc(N4CCOCC4)cc4nccnc34)CC2)nc1` [Compound 622], the negative logarithm of the Ki (pKi) was above 7.00.

Turning to `CNC(=O)c1cc(C)nc(N[C@H]2CC[C@@H](Oc3cc(N4CCOCC4)cc4nccnc34)CC2)n1` [Compound 308], the pKi is above 7.00.

On to `c1cnc2c(O[C@H]3CC[C@@H](Nc4ncc(CN5CCOCC5)cn4)CC3)cc(N3CCOCC3)cc2n1` [Compound 530], for which the pKi was above 7.00.

With `FC(F)(F)c1ccc(N[C@H]2CC[C@@H](Oc3cc(N4CCOCC4)cc4nccnc34)CC2)cn1` [Compound 427], the pKi was above 7.00.

Turning to `Fc1cnc(N[C@H]2CC[C@@H](Oc3cc(N4CCOCC4)cc4nccnc34)CC2)c(F)c1` [Compound 594], the pKi was above 7.00.

In the case of `CN1CCN(c2cc(N[C@H]3CC[C@@H](Oc4cc(N5CCOCC5)cc5nccnc45)CC3)ncn2)CC1` [Compound 537], the pKi was above 7.00.

Consider `COC(=O)c1ccc(N[C@H]2CC[C@@H](Oc3cc(N4CCOCC4)cc4nccnc34)CC2)cc1OC` [Compound 394], for which the pKi is above 7.00.

With `Cc1cccc(N[C@H]2CC[C@@H](Oc3cc(N4CCOCC4)cc4nccnc34)CC2)n1` [Compound 623], the pKi was above 7.00.

Regarding `c1nc2c(c(N[C@H]3CC[C@@H](Oc4cc(N5CCOCC5)cc5nccnc45)CC3)n1)COC2` [Compound 475], the pKi is above 7.00.

On to `c1nc(N[C@H]2CC[C@@H](Oc3cc(N4CCOCC4)cc4nccnc34)CC2)cc(OC2CNC2)n1` [Compound 480], for which the pKi was above 7.00.

For the compound `c1ccc(N[C@H]2CC[C@@H](Oc3cc(N4CCOCC4)cc4nccnc34)CC2)cc1` [Compound 648], the pKi is above 7.00.

As to `COCCOc1cnc(N[C@H]2CC[C@@H](Oc3cc(N4CCOCC4)cc4nccnc34)CC2)nc1` [Compound 612], the pKi is above 7.00.

With `OCCN1CCN(c2cc(N[C@H]3CC[C@@H](Oc4cc(N5CCOCC5)cc5nccnc45)CC3)ncn2)CC1` [Compound 499], the pKi is above 7.00.

Regarding `CC(C)(O)c1ccnc(N[C@H]2CC[C@@H](Oc3cc(N4CCOCC4)cc4nccnc34)CC2)c1` [Compound 573], the pKi is above 7.00.

In the case of `c1cc(-c2cnc(N[C@H]3CC[C@@H](Oc4cc(N5CCOCC5)cc5nccnc45)CC3)nc2)[nH]n1` [Compound 462], the pKi is above 7.00.

Take `Cc1nccc(N[C@H]2C[C@@H](Oc3cc(N4CCOCC4)cc4nccnc34)C2)n1` [Compound 357]: the pKi was above 7.00.

For `OC1(c2cnc(N[C@H]3CC[C@@H](Oc4cc(N5CCOCC5)cc5nccnc45)CC3)nc2)COC1` [Compound 610], the pKi is above 7.00.

Regarding `Cc1nccc(N[C@H]2CC[C@@H](Oc3cc(N4CC5CCC(C4)O5)cc4nccnc34)CC2)n1` [Compound 297], the negative logarithm of the Ki (pKi) is above 7.00.

In the case of `Cc1cccnc1N[C@H]1CC[C@@H](Oc2cc(N3CCOCC3)cc3nccnc23)CC1` [Compound 586], the pKi was above 7.00.

For the compound `COc1c(Cl)ncnc1N[C@H]1CC[C@@H](Oc2cc(N3CCOCC3)cc3nccnc23)CC1` [Compound 402], the pKi was above 7.00.

As to `CNC(=O)c1cnc(N[C@H]2CC[C@@H](Oc3cc(N4CCOCC4)cc4nccnc34)CC2)nc1C` [Compound 287], the pKi is above 7.00.

As to `Clc1cncnc1N[C@H]1CC[C@@H](Oc2cc(N3CCOCC3)cc3nccnc23)CC1` [Compound 409], the pKi was above 7.00.

Turning to `COCc1cc(N[C@H]2CC[C@@H](Oc3cc(N4CCOCC4)cc4nccnc34)CC2)nc(C)n1` [Compound 616], the pKi is above 7.00.

In the case of `CN1CCN(CCc2cnc(N[C@H]3CC[C@@H](Oc4cc(N5CCOCC5)cc5nccnc45)CC3)nc2)CC1` [Compound 430], the pKi is above 7.00.

Regarding `FC(F)(F)c1cc(N[C@H]2CC[C@@H](Oc3cc(N4CCOCC4)cc4nccnc34)CC2)ncn1` [Compound 417], the pKi was above 7.00.

Take `COc1cccc(N[C@H]2CC[C@@H](Oc3cc(N4CCOCC4)cc4nccnc34)CC2)c1` [Compound 408]: the pKi was above 7.00.

`c1cnc2nc(N[C@H]3CC[C@@H](Oc4cc(N5CCOCC5)cc5nccnc45)CC3)sc2c1` [Compound 330]: the pKi was above 7.00.

Turning to `COc1cncnc1N[C@H]1CC[C@@H](Oc2cc(N3CCOCC3)cc3nccnc23)CC1` [Compound 438], the pKi is above 7.00.

For `Cc1ncc(N[C@H]2CC[C@@H](Oc3cc(N4CCOCC4)cc4nccnc34)CC2)cn1` [Compound 450], the pKi is above 7.00.

Regarding `c1cc2c(c(N[C@H]3CC[C@@H](Oc4cc(N5CCOCC5)cc5nccnc45)CC3)c1)OCC2` [Compound 338], the pKi was above 7.00.

For the compound `c1cc(N2CCOCC2)nc(N[C@H]2CC[C@@H](Oc3cc(N4CCOCC4)cc4nccnc34)CC2)n1` [Compound 548], the pKi is above 7.00.

Turning to `Cc1ccnc(N[C@H]2CC[C@@H](Oc3cc(N4CCOCC4)cc4nccnc34)CC2)c1` [Compound 283], the pKi was above 7.00.

As for `c1cnc2c(O[C@H]3CC[C@@H](Nc4ncc(OCCN5CCCC5)cn4)CC3)cc(N3CCOCC3)cc2n1` [Compound 509], the pKi is above 7.00.

In the case of `CNC(=O)c1cc(N[C@H]2CC[C@@H](Oc3cc(N4CCOCC4)cc4nccnc34)CC2)ccc1F` [Compound 405], the pKi is above 7.00.

For `Fc1cccc(N[C@H]2CC[C@@H](Oc3cc(N4CCOCC4)cc4nccnc34)CC2)n1` [Compound 614], the pKi is above 7.00.

Usually pKi stands for the Ki on a negative log10 scale, so that one unit is a factor of ten.
